Reference: article PMC12281424, “A Rac-specific competitive inhibitor of guanine nucleotide binding reduces metastasis in triple-negative breast cancer” (Cell Reports Medicine, 2025)

Key:
[1] = target: CRIK(h) (Homo sapiens, UniProt O14578); assay: Kinase Profiler; type: biochemical
Method: (§1) The kinase profiler was performed by the company Eurofins (Discovery, Panlab and Cerep).

[2] = target: Lck(h) (Homo sapiens, UniProt P06239); assay: Kinase Profiler; type: biochemical
Method: as §1

[3] = target: NEK2(h) (Homo sapiens, UniProt P51955); assay: Kinase Profiler; type: biochemical
Method: as §1

[4] = target: BIKe(h) (Homo sapiens, UniProt Q9NSY1); assay: Kinase Profiler; type: biochemical
Method: (§2) Blood cell counts, kinase profiler, safety screen, bacterial cytotoxicity, Ames, micronucleus assays were performed by the company Eurofins (France). The kinase profiler was performed by the company Eurofins (Discovery, Panlab and Cerep).

[5] = target: LATS1(h) (Homo sapiens, UniProt O95835); assay: Kinase Profiler; type: biochemical
Method: as §1

[6] = target: Adenosine A1 (Homo sapiens, UniProt P30542); assay: Safety screen; type: binding
Method: as §1

[7] = tested on: Nicotinic Acetylcholine; assay: Safety screen; type: binding, human
Method: (§3) Blood cell counts, kinase profiler, safety screen, bacterial cytotoxicity, Ames, micronucleus assays were performed by the company Eurofins (France).

[8] = target: PAR-1Bα(h) (Homo sapiens, UniProt Q7KZI7); assay: Kinase Profiler; type: biochemical
Method: as §1

[9] = target: CK2α1(h) (Homo sapiens, UniProt P68400); assay: Kinase Profiler; type: biochemical
Method: as §1

[10] = target: GRK3(h) (Homo sapiens, UniProt P35626); assay: Kinase Profiler; type: biochemical
Method: as §2

[11] = target: Hck(h) activated (Homo sapiens, UniProt P08631); assay: Kinase Profiler; type: biochemical
Method: as §1

[12] = target: Abl(m) (Mus musculus, UniProt P00520); assay: Kinase Profiler; type: biochemical
Method: as §1

[13] = target: PI3K (p110a(E542K)/p85a)(h) (Homo sapiens, UniProt P42336, E542K); assay: Kinase Profiler; type: biochemical
Method: as §1

[14] = target: JNK2α2(h) (Homo sapiens, UniProt P45984); assay: Kinase Profiler; type: biochemical
Method: as §1

[15] = target: Transporter, Norepinephrine (NET) (Homo sapiens, UniProt P23975); assay: Safety screen; type: binding
Method: as §3

[16] = target: CLK3(h) (Homo sapiens, UniProt P49761); assay: Kinase Profiler; type: biochemical
Method: as §1

[17] = target: TTBK2(h) (Homo sapiens, UniProt Q6IQ55); assay: Kinase Profiler; type: biochemical
Method: as §1

[18] = tested on: Glutamate, NMDA, Phencyclidine; assay: Safety screen; type: binding, rat
Method: as §2

[19] = target: IRR(h) (Homo sapiens, UniProt P14616); assay: Kinase Profiler; type: biochemical
Method: as §2

[20] = tested on: Phosphodiesterase PDE4; assay: Safety screen; type: biochemical, human
Method: as §3

[21] = target: MEKK3(h) (Homo sapiens, UniProt Q99759); assay: Kinase Profiler; type: biochemical
Method: as §1

[22] = target: Axl(h) (Homo sapiens, UniProt P30530); assay: Kinase Profiler; type: biochemical
Method: as §2

[23] = target: CaMKIIα(h) (Homo sapiens, UniProt Q9UQM7); assay: Kinase Profiler; type: biochemical
Method: as §1

[24] = target: GCN2(h) (Homo sapiens, UniProt Q9P2K8); assay: Kinase Profiler; type: biochemical
Method: as §2

[25] = tested on: membrane receptors, ion channel, and kinases; assay: In vitro binding assays on a panel of potential targets
Method: as §2

[26] = target: Opiate δ1 (OP1, DOP) (Homo sapiens, UniProt P41143); assay: Safety screen; type: binding
Method: as §3

[27] = target: CSK(h) (Homo sapiens, UniProt P41240); assay: Kinase Profiler; type: biochemical
Method: as §1

[28] = target: Cannabinoid CB1 (Homo sapiens, UniProt P21554); assay: Safety screen; type: binding
[29] = target: HIPK2(h) (Homo sapiens, UniProt Q9H2X6); assay: Kinase Profiler; type: biochemical
Method: as §1

[30] = target: NDR2(h) (Homo sapiens, UniProt Q9Y2H1); assay: Kinase Profiler; type: biochemical
Method: as §1

[31] = target: HPK1(h) (Homo sapiens, UniProt Q92918); assay: Kinase Profiler; type: biochemical
Method: as §1

[32] = target: CDK12/cyclinK(h) (Homo sapiens, UniProt Q9NYV4); assay: Kinase Profiler; type: biochemical
Method: as §2

[33] = target: GRK5(h) (Homo sapiens, UniProt P34947); assay: Kinase Profiler; type: biochemical
Method: as §2

[34] = target: DCAMKL1(h) (Homo sapiens, UniProt O15075); assay: Kinase Profiler; type: biochemical
Method: as §2

[35] = target: IRAK1(h) (Homo sapiens, UniProt P51617); assay: Kinase Profiler; type: biochemical
Method: as §2

[36] = target: ChaK1(h) (Homo sapiens, UniProt Q96QT4); assay: Kinase Profiler; type: biochemical
Method: as §1

[37] = target: CDKL1(h) (Homo sapiens, UniProt Q00532); assay: Kinase Profiler; type: biochemical
Method: as §1

[38] = target: TGFBR1(h) (Homo sapiens, UniProt P36897); assay: Kinase Profiler; type: biochemical
Method: as §2

[39] = target: PDK1(h) (Homo sapiens, UniProt O15530); assay: Kinase Profiler; type: biochemical
Method: as §2

[40] = target: STK32A(h) (Homo sapiens, UniProt Q8WU08); assay: Kinase Profiler; type: biochemical
Method: as §1

[41] = target: CLK1(h) (Homo sapiens, UniProt P49759); assay: Kinase Profiler; type: biochemical
Method: as §1

[42] = target: MINK(h) (Homo sapiens, UniProt Q8N4C8); assay: Kinase Profiler; type: biochemical
Method: as §1

Chain of CLK1(h) (P49759 whole entry): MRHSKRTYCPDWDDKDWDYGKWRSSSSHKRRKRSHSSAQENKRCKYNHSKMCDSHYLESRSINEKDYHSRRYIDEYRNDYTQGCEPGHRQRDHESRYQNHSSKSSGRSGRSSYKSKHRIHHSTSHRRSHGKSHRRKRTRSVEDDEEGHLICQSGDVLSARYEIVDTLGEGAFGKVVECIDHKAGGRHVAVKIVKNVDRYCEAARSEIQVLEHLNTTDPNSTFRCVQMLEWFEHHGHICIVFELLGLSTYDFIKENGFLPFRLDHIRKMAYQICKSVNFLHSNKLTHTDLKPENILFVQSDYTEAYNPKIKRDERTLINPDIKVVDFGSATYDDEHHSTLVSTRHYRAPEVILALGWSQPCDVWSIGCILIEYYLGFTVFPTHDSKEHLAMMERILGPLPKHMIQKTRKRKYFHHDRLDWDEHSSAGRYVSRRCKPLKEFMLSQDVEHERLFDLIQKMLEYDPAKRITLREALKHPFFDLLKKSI
Chain of STK32A(h) (Q8WU08 whole entry): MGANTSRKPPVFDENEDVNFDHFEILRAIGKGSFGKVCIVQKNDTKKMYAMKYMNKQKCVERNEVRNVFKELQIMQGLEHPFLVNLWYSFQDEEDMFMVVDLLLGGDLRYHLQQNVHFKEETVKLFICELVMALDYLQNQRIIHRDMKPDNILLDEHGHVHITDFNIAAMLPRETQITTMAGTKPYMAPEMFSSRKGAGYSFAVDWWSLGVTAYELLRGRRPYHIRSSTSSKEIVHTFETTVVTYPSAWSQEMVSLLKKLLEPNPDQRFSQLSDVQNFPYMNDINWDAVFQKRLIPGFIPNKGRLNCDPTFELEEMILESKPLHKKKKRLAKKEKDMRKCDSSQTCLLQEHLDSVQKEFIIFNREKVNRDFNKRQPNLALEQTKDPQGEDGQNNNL
Chain of IRAK1(h) (P51617 whole entry): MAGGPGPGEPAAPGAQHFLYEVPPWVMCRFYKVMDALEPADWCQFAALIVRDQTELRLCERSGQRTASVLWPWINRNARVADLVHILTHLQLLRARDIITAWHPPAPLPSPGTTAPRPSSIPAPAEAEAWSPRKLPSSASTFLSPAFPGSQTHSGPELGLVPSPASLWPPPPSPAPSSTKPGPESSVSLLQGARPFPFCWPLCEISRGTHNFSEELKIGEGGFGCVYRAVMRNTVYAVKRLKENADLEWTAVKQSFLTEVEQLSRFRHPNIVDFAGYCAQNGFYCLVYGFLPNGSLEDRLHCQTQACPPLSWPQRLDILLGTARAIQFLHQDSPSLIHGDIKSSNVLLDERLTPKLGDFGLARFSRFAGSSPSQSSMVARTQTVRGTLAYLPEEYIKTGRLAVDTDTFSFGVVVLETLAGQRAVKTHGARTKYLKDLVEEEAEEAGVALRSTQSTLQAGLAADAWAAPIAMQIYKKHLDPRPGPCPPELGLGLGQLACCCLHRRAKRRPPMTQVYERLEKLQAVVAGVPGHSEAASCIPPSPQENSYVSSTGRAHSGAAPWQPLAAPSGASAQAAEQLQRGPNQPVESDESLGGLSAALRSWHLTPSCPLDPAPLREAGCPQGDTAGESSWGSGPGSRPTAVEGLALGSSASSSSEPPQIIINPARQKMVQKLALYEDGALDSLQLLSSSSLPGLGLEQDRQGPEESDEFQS
Chain of Axl(h) (P30530 26-894): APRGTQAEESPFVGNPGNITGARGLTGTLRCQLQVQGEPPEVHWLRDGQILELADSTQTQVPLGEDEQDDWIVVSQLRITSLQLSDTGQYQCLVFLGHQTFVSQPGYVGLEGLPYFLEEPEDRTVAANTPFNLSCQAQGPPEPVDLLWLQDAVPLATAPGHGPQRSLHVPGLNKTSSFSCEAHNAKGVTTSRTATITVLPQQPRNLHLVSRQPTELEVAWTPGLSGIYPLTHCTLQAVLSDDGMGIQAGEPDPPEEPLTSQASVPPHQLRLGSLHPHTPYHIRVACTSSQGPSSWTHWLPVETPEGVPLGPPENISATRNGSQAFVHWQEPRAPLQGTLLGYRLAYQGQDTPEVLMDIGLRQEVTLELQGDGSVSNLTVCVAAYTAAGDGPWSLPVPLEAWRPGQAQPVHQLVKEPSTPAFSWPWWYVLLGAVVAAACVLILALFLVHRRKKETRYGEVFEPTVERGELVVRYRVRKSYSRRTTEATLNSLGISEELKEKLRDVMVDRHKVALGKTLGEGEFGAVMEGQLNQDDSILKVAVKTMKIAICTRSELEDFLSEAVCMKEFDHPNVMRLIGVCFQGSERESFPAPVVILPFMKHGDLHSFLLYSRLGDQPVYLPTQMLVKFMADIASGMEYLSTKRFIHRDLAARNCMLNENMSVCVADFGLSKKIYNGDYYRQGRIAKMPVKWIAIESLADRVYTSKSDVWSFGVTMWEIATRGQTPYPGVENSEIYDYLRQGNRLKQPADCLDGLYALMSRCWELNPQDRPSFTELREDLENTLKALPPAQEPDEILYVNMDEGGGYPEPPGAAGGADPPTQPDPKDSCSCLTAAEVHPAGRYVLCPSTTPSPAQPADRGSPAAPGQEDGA
Chain of PAR-1Bα(h) (Q7KZI7 1-725 isoform Q7KZI7-4): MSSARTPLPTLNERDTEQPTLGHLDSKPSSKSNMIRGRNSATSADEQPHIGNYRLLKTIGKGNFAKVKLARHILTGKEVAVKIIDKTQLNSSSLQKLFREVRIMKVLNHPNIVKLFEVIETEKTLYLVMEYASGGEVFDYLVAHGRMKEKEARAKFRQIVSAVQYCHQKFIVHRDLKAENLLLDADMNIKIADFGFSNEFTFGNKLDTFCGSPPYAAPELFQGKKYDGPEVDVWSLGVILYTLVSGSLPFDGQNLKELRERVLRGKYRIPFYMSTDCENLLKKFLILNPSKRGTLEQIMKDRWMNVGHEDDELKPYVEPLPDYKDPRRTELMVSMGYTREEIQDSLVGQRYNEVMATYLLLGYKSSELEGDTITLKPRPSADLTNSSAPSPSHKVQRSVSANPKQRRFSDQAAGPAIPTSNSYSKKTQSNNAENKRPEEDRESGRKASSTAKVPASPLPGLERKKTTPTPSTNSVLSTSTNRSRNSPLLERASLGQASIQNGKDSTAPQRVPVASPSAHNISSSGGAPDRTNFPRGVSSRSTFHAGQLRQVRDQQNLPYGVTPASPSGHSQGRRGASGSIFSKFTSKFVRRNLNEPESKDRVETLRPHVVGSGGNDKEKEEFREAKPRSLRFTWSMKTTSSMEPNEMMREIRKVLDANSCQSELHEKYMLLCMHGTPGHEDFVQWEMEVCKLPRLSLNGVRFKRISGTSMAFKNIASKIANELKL
Chain of HPK1(h) (Q92918 whole entry): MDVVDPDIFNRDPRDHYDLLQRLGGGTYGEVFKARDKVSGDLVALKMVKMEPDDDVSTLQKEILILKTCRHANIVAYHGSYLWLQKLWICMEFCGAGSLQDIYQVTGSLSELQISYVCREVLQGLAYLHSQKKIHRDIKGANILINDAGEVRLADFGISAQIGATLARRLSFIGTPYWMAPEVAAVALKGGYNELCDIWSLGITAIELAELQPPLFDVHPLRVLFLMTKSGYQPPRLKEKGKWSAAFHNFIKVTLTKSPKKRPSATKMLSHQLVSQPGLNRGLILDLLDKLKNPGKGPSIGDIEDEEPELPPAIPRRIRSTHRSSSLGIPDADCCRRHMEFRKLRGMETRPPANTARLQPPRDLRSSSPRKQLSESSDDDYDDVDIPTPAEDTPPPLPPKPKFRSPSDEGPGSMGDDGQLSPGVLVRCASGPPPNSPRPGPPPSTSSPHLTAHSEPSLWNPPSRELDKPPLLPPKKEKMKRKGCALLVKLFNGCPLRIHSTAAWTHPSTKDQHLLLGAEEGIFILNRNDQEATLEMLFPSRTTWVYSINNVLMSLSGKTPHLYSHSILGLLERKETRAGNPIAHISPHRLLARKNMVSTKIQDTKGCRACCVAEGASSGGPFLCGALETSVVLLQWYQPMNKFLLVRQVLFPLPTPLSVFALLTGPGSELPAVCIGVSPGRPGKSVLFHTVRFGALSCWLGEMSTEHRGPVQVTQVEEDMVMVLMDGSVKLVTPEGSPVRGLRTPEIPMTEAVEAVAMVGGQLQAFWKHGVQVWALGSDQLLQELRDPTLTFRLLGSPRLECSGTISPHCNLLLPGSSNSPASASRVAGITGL
Chain of JNK2α2(h) (P45984 whole entry): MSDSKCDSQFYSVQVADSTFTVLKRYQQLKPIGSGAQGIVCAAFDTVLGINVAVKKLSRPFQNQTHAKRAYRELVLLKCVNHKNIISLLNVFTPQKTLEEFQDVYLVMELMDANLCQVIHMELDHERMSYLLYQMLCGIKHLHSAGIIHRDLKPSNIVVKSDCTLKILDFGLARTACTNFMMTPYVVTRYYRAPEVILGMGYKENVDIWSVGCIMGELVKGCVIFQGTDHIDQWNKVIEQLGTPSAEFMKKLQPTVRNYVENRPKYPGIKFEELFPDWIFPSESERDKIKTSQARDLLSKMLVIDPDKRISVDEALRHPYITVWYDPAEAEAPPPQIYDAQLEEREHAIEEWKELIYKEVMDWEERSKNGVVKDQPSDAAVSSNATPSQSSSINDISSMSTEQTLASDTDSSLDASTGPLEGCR
Chain of GRK5(h) (P34947 whole entry): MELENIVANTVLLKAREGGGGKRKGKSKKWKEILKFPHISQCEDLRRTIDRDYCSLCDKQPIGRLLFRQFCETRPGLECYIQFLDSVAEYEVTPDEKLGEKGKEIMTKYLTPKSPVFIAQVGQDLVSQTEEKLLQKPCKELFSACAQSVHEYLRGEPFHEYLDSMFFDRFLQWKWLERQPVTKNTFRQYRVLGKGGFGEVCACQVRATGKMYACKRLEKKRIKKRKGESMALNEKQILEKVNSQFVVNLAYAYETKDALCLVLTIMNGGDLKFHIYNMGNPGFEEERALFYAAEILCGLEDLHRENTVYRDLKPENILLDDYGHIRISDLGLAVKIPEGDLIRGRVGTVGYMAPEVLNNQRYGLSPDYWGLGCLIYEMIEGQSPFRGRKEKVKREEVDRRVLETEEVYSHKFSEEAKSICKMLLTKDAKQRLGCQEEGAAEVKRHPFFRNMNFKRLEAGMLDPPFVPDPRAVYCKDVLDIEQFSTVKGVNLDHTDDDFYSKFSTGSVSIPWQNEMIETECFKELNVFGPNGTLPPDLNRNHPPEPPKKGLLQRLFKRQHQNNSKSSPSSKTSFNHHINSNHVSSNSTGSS

SMILES: COc1ccc(OC)c(NS(=O)(=O)c2ccc(NC(=O)CCSc3ccc(C)cc3)cc2)c1 [Compound A41]
- Activity(%) [1]: 106%
- Activity(%) [2]: 74%
- Activity(%) [3]: 118%
- Activity(%) [4]: 112%
- Activity(%) [5]: 98%
- % inh. [6]: 2%
- % inh. [7]: -3%
- Activity(%) [8]: 111%
- Activity(%) [9]: 80%
- Activity(%) [10]: 106%
- Activity(%) [11]: 102%
- Activity(%) [12]: 125%
- Activity(%) [13]: 105%
- Activity(%) [14]: 101%
- % inh. [15]: 36%
- Activity(%) [16]: 110%
- Activity(%) [17]: 106%
- % inh. [18]: -6%
- Activity(%) [19]: 118%
- % inh. [20]: 4%
- Activity(%) [21]: 109%
- Activity(%) [22]: 101%
- Activity(%) [23]: 99%
- Activity(%) [24]: 101%
- off-target binding [25]: only very limited off-target binding
- % inh. [26]: 6%
- Activity(%) [27]: 119%
- % inh. [28]: 81%
- Activity(%) [29]: 81%
- Activity(%) [30]: 112%
- Activity(%) [31]: 98%
- Activity(%) [32]: 100%
- Activity(%) [33]: 101%
- Activity(%) [34]: 99%
- Activity(%) [35]: 104%
- Activity(%) [36]: 104%
- Activity(%) [37]: 105%
- Activity(%) [38]: 103%
- Activity(%) [39]: 107%
- Activity(%) [40]: 100%
- Activity(%) [41]: 81%
- Activity(%) [42]: 114%
